From the NIST ThermoML archive (doi:10.1016/j.jct.2015.01.003)
Numbers after ± are expanded uncertainties.

Assay: excess molar enthalpy (molar enthalpy of mixing); xn = mol fraction of the nth substance listed
Conditions: 100 kPa, Liquid, Flow calorimetry

Cc1ccccc1 [toluene] + CCCO
excess molar enthalpy [kcal/mol]
Conditions | 298.15 K | 313.15 K
x1 = 0.0503 | 0.0239 ± 0.00263 | 0.0339 ± 0.00263
x1 = 0.0998 | 0.0488 ± 0.00263 | 0.0681 ± 0.00263
x1 = 0.1497 | 0.0731 ± 0.00263 | 0.0994 ± 0.00287
x1 = 0.2 | 0.098 ± 0.00263 | –
x1 = 0.2001 | – | 0.133 ± 0.00287
x1 = 0.2506 | 0.122 ± 0.00263 | –
x1 = 0.2507 | – | 0.163 ± 0.00287
x1 = 0.2997 | 0.144 ± 0.00287 | 0.191 ± 0.00287
x1 = 0.3506 | 0.165 ± 0.00287 | –
x1 = 0.3507 | – | 0.217 ± 0.00311
x1 = 0.3997 | 0.183 ± 0.00287 | –
x1 = 0.3998 | – | 0.238 ± 0.00311
x1 = 0.4505 | 0.201 ± 0.00287 | –
x1 = 0.4506 | – | 0.258 ± 0.00311
x1 = 0.5012 | 0.214 ± 0.00287 | –
x1 = 0.5013 | – | 0.273 ± 0.00335
x1 = 0.5495 | 0.225 ± 0.00311 | 0.285 ± 0.00335
x1 = 0.5993 | 0.233 ± 0.00311 | –
x1 = 0.5995 | – | 0.293 ± 0.00335
x1 = 0.651 | 0.238 ± 0.00311 | 0.297 ± 0.00335
x1 = 0.6997 | 0.238 ± 0.00311 | –
x1 = 0.6998 | – | 0.296 ± 0.00335
x1 = 0.7501 | 0.234 ± 0.00311 | 0.288 ± 0.00335
x1 = 0.7996 | 0.223 ± 0.00311 | 0.273 ± 0.00335
x1 = 0.8506 | 0.205 ± 0.00311 | –
x1 = 0.8507 | – | 0.248 ± 0.00335
x1 = 0.9007 | – | 0.21 ± 0.00335
x1 = 0.9008 | 0.176 ± 0.00311 | –
x1 = 0.9496 | 0.126 ± 0.00311 | 0.143 ± 0.00335

c1ccccc1 [benzene] + CCCO
Conditions | excess molar enthalpy [kcal/mol]
298.15 K, x1 = 0.0492 | 0.0253 ± 0.00263
298.15 K, x1 = 0.0993 | 0.0523 ± 0.00263
298.15 K, x1 = 0.1503 | 0.0798 ± 0.00263
298.15 K, x1 = 0.2006 | 0.106 ± 0.00263
298.15 K, x1 = 0.2499 | 0.132 ± 0.00287
298.15 K, x1 = 0.3001 | 0.156 ± 0.00287
298.15 K, x1 = 0.3493 | 0.178 ± 0.00287
298.15 K, x1 = 0.3994 | 0.198 ± 0.00287
298.15 K, x1 = 0.4505 | 0.217 ± 0.00311
298.15 K, x1 = 0.5004 | 0.231 ± 0.00311
298.15 K, x1 = 0.5491 | 0.243 ± 0.00311
298.15 K, x1 = 0.5987 | 0.251 ± 0.00311
298.15 K, x1 = 0.6492 | 0.256 ± 0.00311
298.15 K, x1 = 0.7006 | 0.255 ± 0.00311
298.15 K, x1 = 0.7507 | 0.249 ± 0.00311
298.15 K, x1 = 0.7994 | 0.237 ± 0.00311
298.15 K, x1 = 0.8489 | 0.217 ± 0.00311
298.15 K, x1 = 0.8992 | 0.184 ± 0.00311
298.15 K, x1 = 0.9504 | 0.128 ± 0.00311
313.15 K, x1 = 0.0493 | 0.0325 ± 0.00263
313.15 K, x1 = 0.0995 | 0.0662 ± 0.00263
313.15 K, x1 = 0.1506 | 0.1 ± 0.00287
313.15 K, x1 = 0.2009 | 0.133 ± 0.00287
313.15 K, x1 = 0.2503 | 0.162 ± 0.00287
313.15 K, x1 = 0.3005 | 0.191 ± 0.00287
313.15 K, x1 = 0.3498 | 0.217 ± 0.00311
313.15 K, x1 = 0.3999 | 0.24 ± 0.00311
313.15 K, x1 = 0.451 | 0.262 ± 0.00311
313.15 K, x1 = 0.5009 | 0.278 ± 0.00335
313.15 K, x1 = 0.5497 | 0.291 ± 0.00335
313.15 K, x1 = 0.5993 | 0.299 ± 0.00335
313.15 K, x1 = 0.6497 | 0.303 ± 0.00335
313.15 K, x1 = 0.701 | 0.3 ± 0.00335
313.15 K, x1 = 0.7511 | 0.291 ± 0.00335
313.15 K, x1 = 0.7997 | 0.276 ± 0.00335
313.15 K, x1 = 0.8491 | 0.25 ± 0.00335
313.15 K, x1 = 0.8994 | 0.209 ± 0.00335
313.15 K, x1 = 0.9505 | 0.14 ± 0.00335
